Reference: US10738056B2 (Aduro BioTech, Inc., priority 2017, dated 2020)

Legend:
[1] = biological target: Human cGAS amino acids 155-522 (Homo sapiens (Human), UniProt Q8N884); experiment: cGAS biochemical activity assay (ATP remaining, Kinase-Glo Max luminescence); details: human cGAS 155-522, ATP remaining (Kinase-Glo Max); read-out: cGAS IC50
[2] = system: cGAS/STING pathway in THP1 cells; experiment: THP1 cell-based cGAS/STING pathway activity assay (IRF-3-linked luciferase reporter); details: Homo sapiens, THP-1
Summary of the method: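 THP1 cells carrying an IRF-3-driven luciferase reporter were read across a range of compound concentrations, and IC50 values were derived from these concentration responses; the assay upper limit was 100 μM.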

[3] = system: RANTES/CCL5 secretion by Trex1-KO BMM; experiment: Inhibition of RANTES/CCL5 secretion by Trex1-KO bone marrow-derived macrophages; assay type: cell-based, mice; set-up: key to BMM IC50 R (RANTES): A: an IC50 value less than 5 μM; B: an IC50 value between 5 and 20 μM; where an IC50 value could not be calculated from the data; details: RANTES secretion; for IC50: Mus musculus, Macrophage, read-out: BMM IC50 R (RANTES)
Protocol: (§1) A cellular assay can be used to asses the compounds of the invention for their ability to inhibit cytokine production. Bone marrow macrophages harvested from mice can be used to determine response as a function of compound concentration.
(§2) The inhibition of secreted cytokine was measured in bone marrow-derived macrophages (BMMs) from diseased mice to evaluate the potency of compounds of the invention as described herein. […] To derive bone marrow macrophages, marrow extracted from the femurs and tibias were harvested from Trex1-KO mice was cultured in growth media supplemented with macrophage colony-stimulating factor (M-CSF). Differentiated BMM were harvested and frozen for subsequent experimentation. For treatment with compound C1089 (see Example 13), a frozen stock of Trex1-KO BMM was thawed and 1×10^5 cells were plated in 96 well format. BMMs were treated with a dilution series of C1089 and incubated overnight at 37° C. 5% CO2, at which point cellular supernatants were harvested and stored at −80° C. for subsequent analysis. The media used for this dilution series was without FBS. Remaining cells were evaluated for viability using Cell Titer Glo 2.0 kit according to the manufacturer instructions. BMM supernatants were evaluated for the secreted cytokine […] (RANTES/CCL5) or for secreted cytokine monocyte chemoattractant protein 1 (MCP-1/CCL2) using cytometric bead array mouse Flex Set kits (BD Biosciences). Cytokine concentration was calculated from a standard curve and normalized to vehicle (DMSO) treated cells.

[4] = system: MCP-1/CCL2 secretion by Trex1-KO BMM; experiment: Inhibition of MCP-1/CCL2 secretion by Trex1-KO bone marrow-derived macrophages; assay type: cell-based, mice; set-up: key to BMM IC50 M (MCP-1): A: an IC50 value less than 5 μM; B: an IC50 value between 5 and 20 μM; where an IC50 value could not be calculated from the data; details: MCP-1 secretion; for IC50: Mus musculus, Macrophage, read-out: BMM IC50 M (MCP-1)
Protocol: as §1, §2

Human cGAS amino acids 155-522, sequence (Q8N884 157-522): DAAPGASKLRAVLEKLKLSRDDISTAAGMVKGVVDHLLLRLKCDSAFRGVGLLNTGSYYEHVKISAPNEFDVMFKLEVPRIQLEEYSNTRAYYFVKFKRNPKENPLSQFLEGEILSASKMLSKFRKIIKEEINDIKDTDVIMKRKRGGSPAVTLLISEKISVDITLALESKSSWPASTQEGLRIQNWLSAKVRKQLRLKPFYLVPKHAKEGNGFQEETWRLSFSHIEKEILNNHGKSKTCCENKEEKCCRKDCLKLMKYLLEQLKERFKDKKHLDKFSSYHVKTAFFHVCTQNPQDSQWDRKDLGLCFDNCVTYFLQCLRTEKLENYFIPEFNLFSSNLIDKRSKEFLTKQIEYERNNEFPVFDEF

Structure (SMILES)	IC50 [1]	IC50 [2]	BMM IC50 R (RANTES) [3]	IC50 [4]	IC50 [3]	BMM IC50 M (MCP-1) [4]
COc1cccc2oc(-c3c(CC(=O)O)[nH]c4c(-c5ccccc5)c(C(F)(F)F)nn4c3=O)nc12 [Compound C1147, 2-(6-(4-methoxybenzo[d]oxazol-2-yl)-7-oxo-3-phenyl-2-(trifluoromethyl)-4,7-dihydropyrazolo[1,5-a]pyrimidin-5-yl)acetic acid]	20 to 250 µM	–	C	–	–	C
CCOC(=O)Cc1[nH]c2c(-c3ccccc3)c(C(F)(F)F)nn2c(=O)c1-c1nc2c(OC)cccc2o1 [Compound C1140, ethyl 2-(6-(4-methoxybenzo[d]oxazol-2-yl)-7-oxo-3-phenyl-2-(trifluoromethyl)-4,7-dihydropyrazolo[1,5-a]pyrimidin-5-yl)acetate]	20 to 250 µM	–	C	–	–	C
COCc1[nH]c2c(-c3ccccc3)c(C(F)(F)F)nn2c(=O)c1-c1nc2c(OC)cccc2o1 [Compound C1056, 6-(4-methoxybenzo[d]oxazol-2-yl)-5-(methoxymethyl)-3-phenyl-2-(trifluoromethyl)pyrazolo[1,5-a]pyrimidin-7(4H)-one]	< 20 µM	< 20 µM	–	–	–	C
Cc1[nH]c2c(-c3ccccc3)c(C(F)(F)F)nn2c(=O)c1-c1nc2ccccc2n1C1CCCCC1 [Compound C1190, 6-(1-cyclohexyl-1H-benzo[d]imidazol-2-yl)-5-methyl-3-phenyl-2-(trifluoromethyl)pyrazolo[1,5-a]pyrimidin-7(4H)-one]	20 to 250 µM	–	C	–	–	C
Cc1[nH]c2c(-c3ccccc3)c(C(F)(F)F)nn2c(=O)c1-c1nc2cccc(N)c2[nH]1 [Compound C1008, 6-(7-amino-1H-benzo[d]imidazol-2-yl)-5-methyl-3-phenyl-2-(trifluoromethyl)pyrazolo[1,5-a]pyrimidin-7(4H)-one]	20 to 250 µM	> 100 µM	–	–	–	C
COc1cccc2c1nc(-c1c(C)[nH]c3c(-c4ccccc4)c(C(F)(F)F)nn3c1=O)n2C1CCCCC1 [Compound C1176, 6-(1-cyclohexyl-4-methoxy-1H-benzo[d]imidazol-2-yl)-5-methyl-3-phenyl-2-(trifluoromethyl)pyrazolo[1,5-a]pyrimidin-7(4H)-one]	20 to 250 µM	–	C	–	–	C
COCc1[nH]c2c(-c3ccccc3)c(C(F)(F)F)nn2c(=O)c1-c1c(COC)[nH]c2c(-c3ccccc3)c(C(F)(F)F)nn2c1=O [Compound C1029, 5,5′-bis(methoxymethyl)-3,3′-diphenyl-2,2′-bis(trifluoromethyl)-[6,6′-bipyrazolo[1,5-a]pyrimidine]-7,7′(4H,4′H)-dione]	20 to 250 µM	–	C	–	–	C
COc1cccc2oc(-c3c(C)[nH]c4c(-c5ccccc5)c(C(F)(F)F)nn4c3=O)nc12 [Compound C1014, 6-(4-methoxybenzo[d]oxazol-2-yl)-5-methyl-3-phenyl-2-(trifluoromethyl)pyrazolo[1,5-a]pyrimidin-7(4H)-one]	< 20 µM	< 20 µM	–	–	–	C

The next lines start with the values.

IC50 [1]	IC50 [2]	BMM IC50 R (RANTES) [3]	IC50 [4]	IC50 [3]	BMM IC50 M (MCP-1) [4]	Structure (SMILES)
< 20 µM	< 20 µM	C	< 5 µM	–	–	COc1ccc(C(N)=O)c2oc(-c3c(C)[nH]c4c(-c5ccccc5)c(C(F)(F)F)nn4c3=O)nc12 [Compound C1113, 4-methoxy-2-(5-methyl-7-oxo-3-phenyl-2-(trifluoromethyl)-4,7-dihydropyrazolo[1,5-a]pyrimidin-6-yl)benzo[d]oxazole-7-carboxamide]
< 20 µM	< 20 µM	–	5 to 20 µM	< 5 µM	–	COc1cc(C)cc2oc(-c3c(C)[nH]c4c(-c5ccccc5)c(C(F)(F)F)nn4c3=O)nc12 [Compound C1098, 6-(4-methoxy-6-methylbenzo[d]oxazol-2-yl)-5-methyl-3-phenyl-2-(trifluoromethyl)pyrazolo[1,5-a]pyrimidin-7(4H)-one]
< 20 µM	< 20 µM	C	–	–	C	Cc1[nH]c2c(-c3ccccc3)c(C(F)(F)F)nn2c(=O)c1-c1nc2c(OCc3ccccc3)cccc2o1 [Compound C1073, 6-(4-(benzyloxy)benzo[d]oxazol-2-yl)-5-methyl-3-phenyl-2-(trifluoromethyl)pyrazolo[1,5-a]pyrimidin-7(4H)-one]
< 20 µM	< 20 µM	C	–	–	C	COc1cccc2oc(-c3c(C)[nH]c4c(-c5ccccc5F)c(C(F)(F)F)nn4c3=O)nc12 [Compound C1091, 3-(2-fluorophenyl)-6-(4-methoxybenzo[d]oxazol-2-yl)-5-methyl-2-(trifluoromethyl)pyrazolo[1,5-a]pyrimidin-7(4H)-one]
< 20 µM	< 20 µM	–	–	5 to 20 µM	C	Cc1[nH]c2c(-c3ccccc3)c(C(F)(F)F)nn2c(=O)c1-c1nc2c(OCC3CC3)cccc2o1 [Compound C1045, 6-(4-(cyclopropylmethoxy)benzo[d]oxazol-2-yl)-5-methyl-3-phenyl-2-(trifluoromethyl)pyrazolo[1,5-a]pyrimidin-7(4H)-one]
< 20 µM	< 20 µM	C	–	–	C	COc1nccc2oc(-c3c(C)[nH]c4c(-c5ccccc5)c(C#N)nn4c3=O)nc12 [Compound C1167, 6-(4-methoxyoxazolo[4,5-c]pyridin-2-yl)-5-methyl-7-oxo-3-phenyl-4,7-dihydropyrazolo[1,5-a]pyrimidine-2-carbonitrile]
< 20 µM	–	C	–	–	C	COc1cccc2oc(-c3c(C4CCC(CO)C4)[nH]c4c(-c5ccccc5)c(C(F)(F)F)nn4c3=O)nc12 (centres unmarked) [Compound C1236, 5-(3-(hydroxymethyl)cyclopentyl)-6-(4-methoxybenzo[d]oxazol-2-yl)-3-phenyl-2-(trifluoromethyl)pyrazolo[1,5-a]pyrimidin-7(4H)-one]
< 20 µM	< 20 µM	C	–	–	C	Cc1[nH]c2c(-c3ccccc3)c(C(F)(F)F)nn2c(=O)c1-c1nc2c(Cl)cccc2o1 [Compound C1055, 6-(4-chlorobenzo[d]oxazol-2-yl)-5-methyl-3-phenyl-2-(trifluoromethyl)pyrazolo[1,5-a]pyrimidin-7(4H)-one]
< 20 µM	< 20 µM	–	–	< 5 µM	C	COc1cccc2oc(-c3c(C(F)(F)F)[nH]c4c(-c5ccccc5)c(C#N)nn4c3=O)nc12 [Compound C1118, 6-(4-methoxybenzo[d]oxazol-2-yl)-7-oxo-3-phenyl-5-(trifluoromethyl)-4,7-dihydropyrazolo[1,5-a]pyrimidine-2-carbonitrile]
< 20 µM	< 20 µM	–	–	–	C	Cc1[nH]c2c(-c3ccccc3)c(C(F)(F)F)nn2c(=O)c1C(=O)Nc1ccccc1NS(=O)(=O)c1ccccc1 [Compound A1059, 5-methyl-7-oxo-3-phenyl-N-(2-(phenylsulfonamido)phenyl)-2-(trifluoromethyl)-4,7-dihydropyrazolo[1,5-a]pyrimidine-6-carboxamide]
